Test system: endogenous Haspin kinase (phosphorylation of Histone H3 on Thr3) in U2OS cells
Assay: H3T3ph immunofluorescence assay in U2OS cells (cellular endogenous Haspin activity)
Assay type: cell-based
Conditions: 1 μM, 16 h, positive control
Method: In order to assess the ability of our most interesting compounds to inhibit cellular endogenous Haspin kinase, we evaluated their effects on the phosphorylation of Histone H3 on Thr3, a bona fide Haspin substrate (Figure 4). We treated osteosarcoma U2OS cells with 2.5 μM of selected compounds for 16 h before quantifying H3T3 phosphorylation by immunofluorescence on early mitotic cells (Figure 4A,B). […] This discrepency could be explained by the inability of this compound to cross the plasma membrane or by reduced stability in a cellular environment.
Ethical approval for this study was obtained (9 July 2025) from DGRI-LabOGM (APPROVAL NUMBER: L1-2373). U2OS cells (purchased from ATCC, Manassas, VA, USA, reference HTB-96) were grown in DMEM medium (Dulbecco’s Modified Eagle Medium, High glucose; GlutaMAX, Life Technologies, Carlsbad, CA, USA) supplemented with 10% fetal bovine serum (Gibco, Grand Island, NY, USA) in a 5% CO2 humidified atmosphere. Cells grown on coverslips were treated for 16 h with each compound or 0.025% DMSO, then fixed with 4% paraformaldehyde in PBS, permeabilized by 0.15% Triton-X100 for 2 min, and blocked for 12 min in 4% BSA in PBS. Immunofluorescence assay was performed using standard protocols with a rabbit anti-phospho-Thr3 Histone H3 and a mouse anti-a-Tubulin (B-5-1-2) obtained from Merck Millipore, Burlington, MA, USA (1/2000 dilution). Coverslips were mounted with Vectashield containing DAPI (Vector Laboratories, Newark, CA, USA). Images were acquired with a Coolsnap HQ2 CCD camera (Photometrics, Tucson, AZ, USA) on a Zeiss Axio microscope (Carl Zeiss, Oberkochen, Germany) using a 63x NA 1.46 objective. Image acquisition and processing were performed using Zen Blue (Carl Zeiss). The H3T3ph signal on chromosomes was normalized against the DAPI signal and analyzed using ImageJ software (NIH, Version 1.54p). Graphs were produced and statistical analysis was performed using GraphPad Prism 10. p-values were determined by t-test; n.s., not significant; **** p ≤ 0.0001.
Figure 4 Evaluation of selected compounds on cellular endogenous Haspin activity. (A) U2OS cells were treated with 2.5 μM of each compound or 1 μM of CHR6494 (CHR) or DMSO for 16 h. Immunofluorescence assay was performed with anti-pH3T3 antibody (green) and anti-a-Tubulin (red); DNA was labelled with DAPI (blue). Representative images of early mitotic cells for each condition are presented. Scale bar: 5 μm. (B) Scatter plot representing H3T3ph/DAPI signal ratio indicative of Haspin activity; n > 17 mitotic cells per condition. n.s., not significant; **** p ≤ 0.0001.

Compound: CCCNc1ccc2ncc(-c3ccc4[nH]ncc4c3)n2n1 [CHR-6494, reference compound]
- Effect on endogenous Haspin activity (H3T3 phosphorylation): abolished Haspin activity

From PMC12655252, “Synthesis of 1H-Pyrrolo[3,2-g]isoquinoline Derivatives as Ligands Targeting Haspin Kinase” (Molecules, 2025)
